Test results taken from US10766903B2 (ALMAC DISCOVERY LIMITED, priority 2016, dated 2020).
Like-named read-outs stand apart in the source and are kept apart here.

Target: USP7 (Homo sapiens (Human), UniProt Q93009)
Experiment: USP7 fluorescence polarisation (FP) biochemical assay, ubiquitin-Lys-TAMRA substrate
Conditions: average of at least duplicate experiments
In short: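 Full-length His6-USP7 (2.5 nM) incubated ± inhibitor (8-point dilutions, 200 to 0.1 μM before addition) in 50 mM HEPES pH 7.2, 150 mM NaCl, 0.5 mM EDTA, 5 mM DTT, 0.05% BSA, 0.05% CHAPS. Ubiquitin-Lys-TAMRA cleavage followed by FP (ex 530/em 575 nm) every 15 min for 1.5 h; normalised to no-compound control.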

[1] = Table 4, biochemical assay, read-out: USP7 IC50
[2] = USP7 IC50, Table 4, biochemical assay

Chain of USP7 (Q93009 whole entry): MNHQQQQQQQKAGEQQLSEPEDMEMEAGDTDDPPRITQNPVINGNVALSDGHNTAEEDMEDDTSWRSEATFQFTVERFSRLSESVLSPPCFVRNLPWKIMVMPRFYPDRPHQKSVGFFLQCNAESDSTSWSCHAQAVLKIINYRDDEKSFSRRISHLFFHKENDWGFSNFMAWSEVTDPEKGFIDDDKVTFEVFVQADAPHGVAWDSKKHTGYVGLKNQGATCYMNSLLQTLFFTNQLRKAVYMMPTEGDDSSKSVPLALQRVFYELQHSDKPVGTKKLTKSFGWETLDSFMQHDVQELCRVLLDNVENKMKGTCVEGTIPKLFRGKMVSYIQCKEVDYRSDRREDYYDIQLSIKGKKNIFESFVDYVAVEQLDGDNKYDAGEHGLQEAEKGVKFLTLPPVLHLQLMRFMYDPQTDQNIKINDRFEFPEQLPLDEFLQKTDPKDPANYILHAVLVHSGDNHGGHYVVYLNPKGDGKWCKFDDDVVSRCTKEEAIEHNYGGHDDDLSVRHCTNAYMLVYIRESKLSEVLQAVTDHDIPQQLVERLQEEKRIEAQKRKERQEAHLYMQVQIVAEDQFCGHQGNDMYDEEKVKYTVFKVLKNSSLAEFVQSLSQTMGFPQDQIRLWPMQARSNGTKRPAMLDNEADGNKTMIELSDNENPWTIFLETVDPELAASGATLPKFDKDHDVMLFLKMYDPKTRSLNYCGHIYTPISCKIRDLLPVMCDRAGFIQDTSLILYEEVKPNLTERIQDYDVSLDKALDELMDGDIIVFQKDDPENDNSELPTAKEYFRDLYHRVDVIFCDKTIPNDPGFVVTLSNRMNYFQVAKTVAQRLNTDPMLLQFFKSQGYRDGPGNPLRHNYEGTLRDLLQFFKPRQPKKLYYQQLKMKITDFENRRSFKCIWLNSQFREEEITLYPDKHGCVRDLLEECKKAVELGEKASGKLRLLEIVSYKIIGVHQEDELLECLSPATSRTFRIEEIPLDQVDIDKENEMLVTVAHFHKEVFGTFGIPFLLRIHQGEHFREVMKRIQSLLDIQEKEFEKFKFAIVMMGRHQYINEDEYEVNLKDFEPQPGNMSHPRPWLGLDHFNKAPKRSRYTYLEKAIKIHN

Compound	IC50 [1]	IC50 [2]
Cn1nc2c(=O)n(CC3(O)CCN(C(=O)C[C@H](c4ccccc4)C(F)(F)F)CC3)cnc2c1-c1ccc(C2(N)CC2)cc1 [Example 124, (R)-3-(4-(1-Aminocyclopropyl)phenyl)-6-((4-hydroxy-1-(4,4,4-trifluoro-3-phenylbutanoyl)piperidin-4-yl)methyl)-2-methyl-2H-pyrazolo[4,3-d]pyrimidin-7(6H)-one]	< 250 nM	–
Cc1ccc([C@@H](CC(=O)N2CCC(O)(Cn3cnc4c(-c5ccc(CN)cc5)n(C)nc4c3=O)CC2)C(F)(F)F)s1 [Example 125, (S)-3-(4-(Aminomethyl)phenyl)-6-((4-hydroxy-1-(4,4,4-trifluoro-3-(5-methylthiophen-2-yl)butanoyl)piperidin-4-yl)methyl)-2-methyl-2H-pyrazolo[4,3-d]pyrimidin-7(6H)-one]	–	250 to 999 nM
Cn1nc2c(=O)n(CC3(O)CCN(C(=O)CC(C4CC4)C4CC4)CC3)cnc2c1-c1ccc(CN)cc1 [Example 127, 3-(4-(Aminomethyl)phenyl)-6-((1-(3,3-dicyclopropylpropanoyl)-4-hydroxypiperidin-4-yl)methyl)-2-methyl-2H-pyrazolo[4,3-d]pyrimidin-7(6H)-one]	< 250 nM	–
CN1CC=C(c2c3ncn(CC4(O)CCN(C(=O)C[C@H](c5ccccc5)C(F)(F)F)CC4)c(=O)c3nn2C)CC1 [Example 130, (R)-6-((4-Hydroxy-1-(4,4,4-trifluoro-3-phenylbutanoyl)piperidin-4-yl)methyl)-2-methyl-3-(1-methyl-1,2,3,6-tetrahydropyridin-4-yl)-2H-pyrazolo[4,3-d]pyrimidin-7(6H)-one]	1000 to 200000 nM	–
CC(=O)N1CCC(O)(Cn2cnc3c(-c4ccccc4)n(C)nc3c2=O)CC1 [Example 131, 6-((1-Acetyl-4-hydroxypiperidin-4-yl)methyl)-2-methyl-3-phenyl-2H-pyrazolo[4,3-d]pyrimidin-7(6H)-one]	1000 to 200000 nM	–
O=C(CC(C1CC1)C1CC1)N1CCC(O)(Cn2cnc(NCCN3CCCC3)cc2=O)CC1 [Example 133, 3-((1-(3,3-Dicyclopropylpropanoyl)-4-hydroxypiperidin-4-yl)methyl)-6-((2-(pyrrolidin-1-yl)ethyl)amino)pyrimidin-4(3H)-one]	250 to 999 nM	–
CN(C)CC#Cc1c2ncn(CC3(O)CCN(C(=O)C[C@H](c4ccccc4)C(F)(F)F)CC3)c(=O)c2nn1C [Example 135, (R)-3-(3-(Dimethylamino)prop-1-yn-1-yl)-6-((4-hydroxy-1-(4,4,4-trifluoro-3-phenylbutanoyl)piperidin-4-yl)methyl)-2-methyl-2H-pyrazolo[4,3-d]pyrimidin-7(6H)-one]	1000 to 200000 nM	–
Cn1nc2c(=O)n(CC3(O)CCN(C(=O)CCC4CCC4)CC3)cnc2c1-c1ccc(CN)cc1 [Example 138, 3-(4-(Aminomethyl)phenyl)-6-((1-(3-cyclobutylpropanoyl)-4-hydroxypiperidin-4-yl)methyl)-2-methyl-2H-pyrazolo[4,3-d]pyrimidin-7(6H)-one]	250 to 999 nM	–
C[C@H](CC(=O)N1CCC(O)(Cn2cnc3c(-c4ccccc4)cnn3c2=O)CC1)c1ccccc1 [Example 139, (R)-3-((4-Hydroxy-1-(3-phenylbutanoyl)piperidin-4-yl)methyl)-8-phenylpyrazolo[1,5-a][1,3,5]triazin-4(3H)-one]	< 250 nM	–
C[C@H](CC(=O)N1CCC(O)(Cn2cnc(N3CCC[C@@H]3CO)cc2=O)CC1)c1ccccc1 [Example 140, 3-((4-hydroxy-1-((R)-3-phenylbutanoyl)piperidin-4-yl)methyl)-6-((R)-2-(hydroxymethyl)pyrrolidin-1-yl)pyrimidin-4(3H)-one]	1000 to 200000 nM	–
COCC1CN(c2cc(=O)n(CC3(O)CCN(C(=O)C[C@@H](C)c4ccccc4)CC3)cn2)C1 [Example 141, (R)-3-((4-hydroxy-1-(3-phenylbutanoyl)piperidin-4-yl)methyl)-6-(3-(methoxymethyl)azetidin-1-yl)pyrimidin-4(3H)-one]	1000 to 200000 nM	–
CC(=O)NCCNc1cc(=O)n(CC2(O)CCN(C(=O)C[C@@H](C)c3ccccc3)CC2)cn1 [Example 143, (R)-N-(2-((1-((4-hydroxy-1-(3-phenylbutanoyl)piperidin-4-yl)methyl)-6-oxo-1,6-dihydropyrimidin-4-yl)amino)ethyl)acetamide]	1000 to 200000 nM	–
C[C@H](CC(=O)N1CCC(O)(Cn2cnc(N3CCC(O)CC3)cc2=O)CC1)c1ccccc1 [Example 144, (R)-3-((4-hydroxy-1-(3-phenylbutanoyl)piperidin-4-yl)methyl)-6-(4-hydroxypiperidin-1-yl)pyrimidin-4(3H)-one]	1000 to 200000 nM	–
C[C@H](CC(=O)N1CCC(O)(Cn2cnc(NCCNc3nccc(C(F)(F)F)n3)cc2=O)CC1)c1ccccc1 [Example 145, (R)-3-((4-hydroxy-1-(3-phenylbutanoyl)piperidin-4-yl)methyl)-6-((2-((4-(trifluoromethyl)pyrimidin-2-yl)amino)ethyl)amino)pyrimidin-4(3H)-one]	1000 to 200000 nM	–
C[C@H](CC(=O)N1CCC(O)(Cn2cnc(N3CCCC3CNC(=O)OC(C)(C)C)cc2=O)CC1)c1ccccc1 (stereo partly drawn) [Example 147, tert-butyl ((1-(1-((4-hydroxy-1-((R)-3-phenylbutanoyl)piperidin-4-yl)methyl)-6-oxo-1,6-dihydropyrimidin-4-yl)pyrrolidin-2-yl)methyl)carbamate]	1000 to 200000 nM	–
C[C@H](CC(=O)N1CCC(O)(Cn2cnc(N3CCOC(C)(C(=O)N(C)C)C3)cc2=O)CC1)c1ccccc1 (stereo partly drawn) [Example 148, 4-(1-((4-hydroxy-1-((R)-3-phenylbutanoyl)piperidin-4-yl)methyl)-6-oxo-1,6-dihydropyrimidin-4-yl)-N,N,2-trimethylmorpholine-2-carboxamide]	1000 to 200000 nM	–
C[C@H](CC(=O)N1CCC(O)(Cn2cnc(N3CCC(N4CCOCC4)C3)cc2=O)CC1)c1ccccc1 (stereo partly drawn) [Example 149, 3-((4-hydroxy-1-((R)-3-phenylbutanoyl)piperidin-4-yl)methyl)-6-(3-morpholinopyrrolidin-1-yl)pyrimidin-4(3H)-one]	1000 to 200000 nM	–
C[C@H](CC(=O)N1CCC(O)(Cn2cnc(N3CCC(C)(O)C3)cc2=O)CC1)c1ccccc1 (stereo partly drawn) [Example 150, 3-((4-hydroxy-1-((R)-3-phenylbutanoyl)piperidin-4-yl)methyl)-6-(3-hydroxy-3-methylpyrrolidin-1-yl)pyrimidin-4(3H)-one]	1000 to 200000 nM	–
C[C@H](CC(=O)N1CCC(O)(Cn2cnc(NC3CCOC3)cc2=O)CC1)c1ccccc1 (stereo partly drawn) [Example 151, 3-((4-hydroxy-1-((R)-3-phenylbutanoyl)piperidin-4-yl)methyl)-6-((tetrahydrofuran-3-yl)amino)pyrimidin-4(3H)-one]	1000 to 200000 nM	–

Continued, values first:

IC50 [1]	IC50 [2]	Compound
1000 to 200000 nM	–	C[C@H](CC(=O)N1CCC(O)(CN2C(=O)Cc3ccccc32)CC1)c1ccccc1 [Example 126, (R)-1-((4-Hydroxy-1-(3-phenylbutanoyl)piperidin-4-yl)methyl)indolin-2-one]
250 to 999 nM	–	O=C(C[C@H](c1ccccc1)C(F)(F)F)N1CCC(O)(Cn2cnc3c(ncn3-c3ccccc3)c2=O)CC1 [Example 128, (R)-1-((4-Hydroxy-1-(4,4,4-trifluoro-3-phenylbutanoyl)piperidin-4-yl)methyl)-9-phenyl-1H-purin-6(9H)-one]
< 250 nM	–	O=C(C[C@H](c1ccccc1)C(F)F)N1CCC(O)(Cn2cnc3c(ncn3-c3ccccc3)c2=O)CC1 [Example 129, (R)-1-((1-(4,4-Difluoro-3-phenylbutanoyl)-4-hydroxypiperidin-4-yl)methyl)-9-phenyl-1H-purin-6(9H)-one]
1000 to 200000 nM	–	CC(=O)N1CCC(O)(Cn2cnc(NCCN3CCCC3)cc2=O)CC1 [Example 132, 3-((1-Acetyl-4-hydroxypiperidin-4-yl)methyl)-6-((2-(pyrrolidin-1-yl)ethyl)amino)pyrimidin-4(3H)-one]
< 250 nM	–	Cn1nc2c(=O)n(CC3(O)CCN(C(=O)C[C@H](c4ccccc4)C(F)(F)F)CC3)cnc2c1C1=CCCCC1 [Example 134, (R)-3-(Cyclohex-1-en-1-yl)-6-((4-hydroxy-1-(4,4,4-trifluoro-3-phenylbutanoyl)piperidin-4-yl)methyl)-2-methyl-2H-pyrazolo[4,3-d]pyrimidin-7(6H)-one]
–	250 to 999 nM	Cn1nc2c(=O)n(CC3(O)CCN(C(=O)C[C@H](c4ccccc4)C(F)(F)F)CC3)cnc2c1C1CCCCC1 [Example 136, (R)-3-Cyclohexyl-6-((4-hydroxy-1-(4,4,4-trifluoro-3-phenylbutanoyl)piperidin-4-yl)methyl)-2-methyl-2H-pyrazolo[4,3-d]pyrimidin-7(6H)-one]
< 250 nM	–	Cn1nc2c(=O)n(CC3(O)CCN(C(=O)C[C@H](c4ccccc4)C(F)(F)F)CC3)cnc2c1-c1ccc(CN2CCOCC2)cc1 [Example 137, (R)-6-((4-Hydroxy-1-(4,4,4-trifluoro-3-phenylbutanoyl)piperidin-4-yl)methyl)-2-methyl-3-(4-(morpholinomethyl)phenyl)-2H-pyrazolo[4,3-d]pyrimidin-7(6H)-one]
–	250 to 999 nM	CC(C)NCCNc1cc(=O)n(CC2(O)CCN(C(=O)C[C@@H](C)c3ccccc3)CC2)cn1 [Example 142, (R)-3-((4-hydroxy-1-(3-phenylbutanoyl)piperidin-4-yl)methyl)-6-((2-(isopropylamino)ethyl)amino)pyrimidin-4(3H)-one]
1000 to 200000 nM	–	C[C@H](CC(=O)N1CCC(O)(Cn2cnc(NCCNc3ccccc3)cc2=O)CC1)c1ccccc1 [Example 146, (R)-3-((4-hydroxy-1-(3-phenylbutanoyl)piperidin-4-yl)methyl)-6-((2-(phenylamino)ethyl)amino)pyrimidin-4(3H)-one]
1000 to 200000 nM	–	C[C@H](CC(=O)N1CCC(O)(Cn2cnc(N3CCC4(CCOC4)C3)cc2=O)CC1)c1ccccc1 (stereo partly drawn) [Example 152, 3-((4-hydroxy-1-((R)-3-phenylbutanoyl)piperidin-4-yl)methyl)-6-(2-oxa-7-azaspiro[4.4]nonan-7-yl)pyrimidin-4(3H)-one]
